Measurements taken from publication PMC6792352, “Limited Chemical Structural Diversity Found to Modulate Thyroid Hormone Receptor in the Tox21 Chemical Library” (Environmental Health Perspectives, 2019).
Structures can show the parent of a compound that is named as a salt.

Assay: in vitro
Details: rat, gh3-tre-luc cells, AC50 (uM) modified / 1000

| Compound | CC50 at 24 h |
| --- | --- |
| C1=COCCC1 [3,4-Dihydro-2H-pyran] | > 90 µM |
| CC[C@H]1OC(=O)[C@H](C)[C@@H](O[C@H]2C[C@@](C)(OC)[C@@H](O)[C@H](C)O2)[C@H](C)[C@@H](O[C@@H]2O[C@H](C)C[C@H](N(C)C)[C@H]2O)[C@](C)(O)C[C@@H](C)C(=O)[C@H](C)[C@@H](O)[C@]1(C)O [Erythromycin] | > 70 µM |
| COCCOC(=O)CC#N [2-Methoxyethyl cyanoacetate] | > 90 µM |
| COc1nn(CSP(=S)(OC)OC)c(=O)s1 [Methidathion] | > 90 µM |
| NS(=O)(=O)Cc1noc2ccccc12 [Zonisamide] | > 50 µM |
| CCN(CC)CC [Triethylamine] | > 100 µM |
| CCCOc1cc(N)ccc1C(=O)OCCN(CC)CC [Propoxycaine hydrochloride] | > 20 µM |
| CC(C)OB(OC(C)C)OC(C)C [Triisopropyl orthoborate] | > 90 µM |
| NS(=O)(=O)c1cc(C2(O)NC(=O)c3ccccc32)ccc1Cl (stereo not drawn) [Chlorthalidone] | > 20 µM |
| CC(C)(CC(=O)O)C(=O)O [2,2-Dimethylbutanedioic acid] | > 90 µM |
| CO/N=C(\C(=O)N[C@@H]1C(=O)N2C(C(=O)[O-])=C(C[n+]3cccc4c3CCCC4)CS[C@H]12)c1csc(N)n1 [Cefquinome sulfate] | > 50 µM |
| Cc1ccc(O)c2ncccc12 [Tiliquinol] | 4.67 µM |
| CCOC(=O)c1nc(C(Cl)(Cl)Cl)n(-c2ccc(Cl)cc2Cl)n1 [Fenchlorazole-ethyl] | 52.1 µM |
| O=C(O)c1ccccc1Nc1cc(Cl)ccc1C(=O)O [Lobenzarit sodium] | > 50 µM |
| CC(C)=CCC/C(C)=C/C=N/O [Citral oxime] | > 90 µM |
| CCOC(=O)C1=C(COCCN)NC(C)=C(C(=O)OC)C1c1ccccc1Cl (stereo not drawn) [Amlodipine besylate] | 19.7 µM |
| CC(C)CCCCCCc1ccc(OCCOCCO)cc1 [Igepal CO-890] | > 100 µM |
| O=C(c1ccc(Cl)cc1)c1ccc(Cl)cc1 [4,4'-Dichlorobenzophenone] | > 90 µM |
| CC1COc2c(N3CCN(C)CC3)c(F)cc3c(=O)c(C(=O)O)cn1c23 (stereo not drawn) [Ofloxacin] | > 50 µM |
| C=C(C)C(=O)OCC1CO1 (stereo not drawn) [Glycidyl methacrylate] | > 90 µM |

| Compound | CC50 at 24 h |
| --- | --- |
| C/C(=C\c1csc(C)n1)[C@@H]1C[C@@H]2O[C@]2(C)CCC[C@H](C)[C@H](O)[C@@H](C)C(=O)C(C)(C)[C@@H](O)CC(=O)O1 [Epothilone B] | 0.00955 µM |
| Oc1cc(O)c2c(c1)O[C@H](c1ccc(O)c(O)c1)[C@H](O)C2 [(-)-Epicatechin] | > 50 µM |
| O=C=NCC1CCCC(CN=C=O)C1 (stereo not drawn) [1,3-Bis(isocyanatomethyl)cyclohexane] | > 90 µM |
| O=C(c1ccc(O)cc1)c1ccc(O)c(O)c1O [2,3,4,4'-Tetrahydroxybenzophenone] | > 90 µM |
| C#CCN1C(=O)COc2cc(F)c(N3C(=O)C4=C(CCCC4)C3=O)cc21 [Flumioxazin] | > 90 µM |
| NC(=O)c1cccc([N+](=O)[O-])c1 [3-Nitrobenzamide] | > 90 µM |
| CCSC(=O)N(CC)C1CCCCC1 [Cycloate] | > 90 µM |
| CCOc1cc([N+](=O)[O-])c(OCC)cc1N1CCOCC1 [4-(2,5-Diethoxy-4-nitrophenyl)morpholine] | > 90 µM |
| C=CN1CCCCCC1=O [1-Ethenylazepan-2-one] | > 90 µM |
| CC(C)c1ccc2oc3nc(N)c(C(=O)O)cc3c(=O)c2c1 [Amlenanox] | > 50 µM |
| C[C@@H]1O[C@@H](O[C@H]2C[C@@H](O)[C@]3(CO)[C@H]4[C@H](O)C[C@]5(C)[C@@H](C6=CC(=O)OC6)CC[C@]5(O)[C@@H]4CC[C@]3(O)C2)[C@H](O)[C@H](O)[C@H]1O [Ouabain] | > 80 µM |
| CC(C)(C)c1ccc(-c2ccc(C(C)(C)C)cc2)cc1 [4,4'-Di-tert-butylbiphenyl] | > 90 µM |
| CC1=C(C(=O)OCCN(Cc2ccccc2)c2ccccc2)C(c2cccc([N+](=O)[O-])c2)C(P2(=O)OCC(C)(C)CO2)=C(C)N1 (stereo not drawn) [Efonidipine] | 23.8 µM |
| CC1(C)O[C@H]2CC(=O)OC[C@]23[C@H]2CC[C@@]4(C)[C@H](c5ccoc5)OC(=O)[C@H]5O[C@]54[C@]2(C)C(=O)C[C@@H]13 [Limoni] | > 50 µM |
| Cc1cc(C)c(C2=C(OC(=O)CC(C)(C)C)C3(CCCC3)OC2=O)c(C)c1 [Spiromesifen] | > 100 µM |
| O=C(CCN1CCN2CCCC2C1)N1c2ccccc2Sc2ccc(Cl)cc21 (stereo not drawn) [Azaclorzine] | 14.6 µM |
| CC[N+](CC)(CC(=O)Nc1c(C)cccc1C)Cc1ccccc1 [Denatonium benzoate] | > 50 µM |
| CC(=O)OCC(=O)[C@@]1(O)[C@H](OC(C)=O)C[C@H]2[C@@H]3CCC4=CC(=O)C=C[C@]4(C)[C@@]3(F)[C@@H](O)C[C@@]21C [Triamcinolone diacetate] | > 50 µM |
| CC(=O)O[C@]1(C(C)=O)CC[C@H]2[C@@H]3C=C(Cl)C4=CC(=O)[C@@H]5C[C@@H]5[C@]4(C)[C@H]3CC[C@@]21C [Cyproterone acetate] | 66.8 µM |
| CCC(C)C1N=C(C)C(C)S1 (stereo not drawn) [2-(2-Butyl)-4,5-dimethyl-3-thiazoline] | > 90 µM |

| Compound | CC50 at 24 h |
| --- | --- |
| COCC(=O)N(c1c(C)cccc1C)C(C)C(=O)OC (stereo not drawn) [Metalaxyl] | > 90 µM |
| O=C(CC(=O)c1ccccc1)c1ccccc1 [1,3-Diphenyl-1,3-propanedione] | > 100 µM |
| O=C1NC(=O)C(c2ccccc2)(c2ccccc2)N1 [5,5-Diphenylhydantoin] | > 90 µM |
| CCOC(=O)CCC(=O)OCC [Diethyl butanedioate] | > 90 µM |
| NCCc1ccc(O)cc1 [Tyramine hydrochloride] | > 90 µM |
| COc1cccc2sc(N)nc12 [2-Amino-4-methoxybenzothiazole] | > 90 µM |
| CCCCCCCCCCCCCCCCCC#N [Octadecanenitrile] | > 90 µM |
| CCCCN1C[C@H](O)[C@@H](O)[C@H](O)[C@H]1CO [Miglustat] | > 50 µM |
| CCCCNc1c(C(=O)OCC)c(C)nc2c1cnn2CC [Tracazolate hydrochloride] | > 50 µM |
| CCN(CC)CCNc1ccc(CO)c2sc3ccccc3c(=O)c12 [Hycanthone] | 2.88 µM |
| O=C1CC2(CCCC2)CC(=O)N1CCNCC1COc2ccccc2O1 (stereo not drawn) [Binospirone mesylate] | 41.9 µM |
| CC1CC(=O)CC(C)(C)C1 (stereo not drawn) [3,3,5-Trimethylcyclohexanone] | > 90 µM |
| C=C1[C@H]2CC[C@@H]3[C@H]2C(C)(C)CCC[C@]13C [Longifolene] | > 90 µM |
| O=C(O)CNC(=O)c1ccc([N+](=O)[O-])cc1 [4-Nitrohippuric acid] | > 90 µM |
| CCOC(=O)NCCC[Si](OCC)(OCC)OCC [Ethyl [3-(triethoxysilyl)propyl]carbamate] | > 90 µM |
| OCCOc1ccccc1 [2-Phenoxyethanol] | > 90 µM |
| O=P(O)(O)CCCl [Ethephon] | > 90 µM |
| Nc1ccc(N=Nc2ccc(N)cc2)cc1 [4,4'-Diaminoazobenzene] | 32.1 µM |
| CCOC(=O)OC(C)OC1=C(C(=O)Nc2ccccn2)N(C)S(=O)(=O)c2ccccc21 (stereo not drawn) [Ampiroxicam] | > 50 µM |
| CCCCCCCCCCCC(=O)OC [Methyl dodecanoate] | > 90 µM |

Same assay, conditions: rat, gh3-tre-luc cells, AC50 (uM) modified / 1000, Tox21_110001=Tox21_113156; viability, 1 nM T3 present, 24 h

| Compound | CC50 at 24 h |
| --- | --- |
| S=C(SSC(=S)N1CCCCC1)N1CCCCC1 [Dicyclopentamethylenethiuram disulfide] | 0.373 µM |

Same assay, conditions: rat, gh3-tre-luc cells, AC50 (uM) modified / 1000, Tox21_110001=Tox21_113161; viability, 1 nM T3 present, 24 h

| Compound | CC50 at 24 h |
| --- | --- |
| C[C@]12CCC(=O)C=C1CC[C@@H]1[C@@H]2CC[C@@]2(C)[C@H]1CC[C@]2(C)O [17-Methyltestosterone] | > 50 µM |

Same assay, conditions: rat, gh3-tre-luc cells, AC50 (uM) modified / 1000, Tox21_110001=Tox21_113494; viability, 1 nM T3 present, 24 h

| Compound | CC50 at 24 h |
| --- | --- |
| COc1cc(CC(C)N)c(OC)cc1Br (stereo not drawn) [Brolamfetamine hydrobromide] | 25.6 µM |

Same assay, conditions: rat, gh3-tre-luc cells, AC50 (uM) modified / 1000, Tox21_110001=Tox21_200260; viability, 1 nM T3 present, 24 h

| Compound | CC50 at 24 h |
| --- | --- |
| Cc1ccc2cc(C)ccc2c1 [2,6-Dimethylnaphthalene] | > 90 µM |

Same assay, conditions: rat, gh3-tre-luc cells, AC50 (uM) modified / 1000, Tox21_110001=Tox21_200821; viability, 1 nM T3 present, 24 h

| Compound | CC50 at 24 h |
| --- | --- |
| O=[N+]([O-])c1ccccc1CCl [2-Nitrobenzyl chloride] | > 90 µM |

Same assay, conditions: rat, gh3-tre-luc cells, AC50 (uM) modified / 1000, Tox21_110001=Tox21_201663; viability, 1 nM T3 present, 24 h

| Compound | CC50 at 24 h |
| --- | --- |
| CN(C)N=O [N-Nitrosodimethylamine] | > 90 µM |

Same assay, conditions: rat, gh3-tre-luc cells, AC50 (uM) modified / 1000, Tox21_110001=Tox21_202080; viability, 1 nM T3 present, 24 h

| Compound | CC50 at 24 h |
| --- | --- |
| CC(=O)C=C(C)C [4-Methylpent-3-en-2-one] | > 100 µM |

Same assay, conditions: rat, gh3-tre-luc cells, AC50 (uM) modified / 1000, Tox21_110001=Tox21_202246; viability, 1 nM T3 present, 24 h

| Compound | CC50 at 24 h |
| --- | --- |
| CNC(=O)CSP(=S)(OC)OC [Dimethoate] | > 90 µM |

Same assay, conditions: rat, gh3-tre-luc cells, AC50 (uM) modified / 1000, Tox21_110001=Tox21_202325; viability, 1 nM T3 present, 24 h

| Compound | CC50 at 24 h |
| --- | --- |
| N#CSCSC#N [Methylene bis(thiocyanate)] | 3.41 µM |

Same assay, conditions: rat, gh3-tre-luc cells, AC50 (uM) modified / 1000, Tox21_110001=Tox21_202927; viability, 1 nM T3 present, 24 h

| Compound | CC50 at 24 h |
| --- | --- |
| CCCCON=O [N-Butylnitrite] | > 90 µM |

Same assay, conditions: rat, gh3-tre-luc cells, AC50 (uM) modified / 1000, Tox21_110001=Tox21_202971; viability, 1 nM T3 present, 24 h

| Compound | CC50 at 24 h |
| --- | --- |
| Nc1ccc2c(c1)Cc1ccccc1-2 [2-Aminofluorene] | > 90 µM |

Same assay, conditions: rat, gh3-tre-luc cells, AC50 (uM) modified / 1000, Tox21_110001=Tox21_300778; viability, 1 nM T3 present, 24 h

| Compound | CC50 at 24 h |
| --- | --- |
| CNC(=O)Oc1cccc(N=CN(C)C)c1 [Formetanate hydrochloride] | > 90 µM |

Same assay, conditions: rat, gh3-tre-luc cells, AC50 (uM) modified / 1000, Tox21_110001=Tox21_301058; viability, 1 nM T3 present, 24 h

| Compound | CC50 at 24 h |
| --- | --- |
| N#CSCSC#N [Methylene bis(thiocyanate)] | 5.63 µM |

Same assay, conditions: rat, gh3-tre-luc cells, AC50 (uM) modified / 1000, Tox21_110001=Tox21_303606; viability, 1 nM T3 present, 24 h

| Compound | CC50 at 24 h |
| --- | --- |
| CC(=O)C=C(C)C [4-Methylpent-3-en-2-one] | > 90 µM |

Same assay, conditions: rat, gh3-tre-luc cells, AC50 (uM) modified / 1000, Tox21_110001=Tox21_400058; viability, 1 nM T3 present, 24 h

| Compound | CC50 at 24 h |
| --- | --- |
| C[C@]12CCC(=O)C=C1CC[C@@H]1[C@@H]2CC[C@@]2(C)[C@H]1CC[C@]2(C)O [17-Methyltestosterone] | > 90 µM |
